{
  "source": "patent US7311919B2",
  "about": "“Agents for treating osteoporosis and inhibiting osteoclast formation” (Simpson Biotech Co., Ltd., priority 2003, dated 2007)",
  "tested_on": "osteoclasts",
  "experiment": "Osteoclast formation in co-culture of myelocytes and osteoblasts (TRAP staining)",
  "assay_type": "cell-based",
  "details": "2 U/ml",
  "method": "Myelocytes and osteoblasts were co-cultured in vitro and the numbers of osteoclasts formed were measured. Myelocytes will differentiate into osteoclasts expressing tartrate-resisted acidic phosphatase (TRAP) when vitamin D is present in the coculture. These osteoclasts could be identified by staining for TRAP. Therefore the development of osteoclasts could be assayed by co-culturing myelocytes with osteoblasts.\nOsteoblasts and, myelocytes were co-cultured in 24-well plate. PTH (100 ng/ml), 1α, 25 (OH)2VD3 (10^−8 M), water extraction of the mycelium of C. Sinensis 3 mg/ml, 300 μg/ml, 30 μg/ml, 3 μg/ml or Elcatonin 2 U/ml were added. Samples were numbered No. 1˜No. 6. Each sample was cultured in 4 wells. Culture was maintained for 6 days with medium changed every two days.\nAfter coculturing, TRAP-positive cells were stained to dark red color. The numbers of TRAP-positive osteoclasts that have more than 3 nucleuses were counted. The average numbers of osteoclasts from 4 samples were the number of osteoclasts.\nThe numbers of osteoclasts in the 1α, 25 (OH)2D3 sample was considered 100%. The percentage of osteoclasts formed of experimental group was calculated using formula 1. Student's t-test was used to examine the significance.\nThe formation of osteoclasts (%) osteoclast cell numbers/osteoclast cell numbers in medium with 1α,25(OH)2D3×100 (formula 1)",
  "data": [
    {"substance": "Elcatonin", "values": [
      {"measurement": "Formation of osteoclasts (%)", "setting": "1α,25(OH)2D3 sample = 100%", "result": 13.8, "unit": "%"},
      {"measurement": "Average Osteoclast cell numbers (n = 4)", "setting": "6 days co-culture", "result": 113.0}
    ]}
  ]
}
